# Values of other authors, collected in patent publication US20240342237A1, “COMPOSITION AND METHODS OF TREATMENT USING TRANSDERMAL SUPPLEMENTATION” (Xygenyx Inc., priority 2023, published 2024).
# Square brackets hold non-standard residues; d marks the D form. Peptide text beside a SMILES is read from it. Cit = NC(=O)NCCC[C@H](N)C(=O)O
# Columns and labels:
# [1] = test system: skin; conditions: topical application, concentrations 0.5-5%
# [2] = compared to α-tocopherol = 1.0
# [3] = test system: skin; conditions: as penetration enhancer
# [4] = test system: skin; conditions: topical formulations, within four weeks of treatment
# [5] = dietary intake in equal portions
# [6] = test system: wide dynamic range neurons in the ventroposterolateral nucleus of the thalamus; conditions: in vivo
# [7] = in vivo
molecule,measurement,setting,value
"C=CCCCCCCCCC(=O)N[C@@H](Cc1ccccc1)C(=O)O [UP, Undecylenoyl phenylalanine]",time to skin lightening effects,[1],≥ 7 days
Cc1cc(O)c(C)c2c1O[C@](C)(CCC[C@H](C)CCC[C@H](C)CCCC(C)C)CC2 [β-tocopherol],relative biological activity,[2],0.5
Cc1c(C)c2c(c(C)c1O)CC[C@@](C)(CCC[C@H](C)CCC[C@H](C)CCCC(C)C)O2 [α-tocopherol],reduction of risk of coronary disease,"dietary supplementation, doses up to 400 IU/day",up to 34%
same,reduction of risk of developing neurodegenerative diseases such as Alzheimer's Syndrome or dementia,"dietary supplementation, doses up to 400 IU/day, controlled trials",≤ 24%
same,reduction in the development of age-related cataracts,"in combination with 10-20 mg β-carotene and 400-500 mg vitamin C, doses around 400-500 IU",23%
"CC12CCC(CC1)C(C)(C)O2 [eucalyptol, 1,8-epoxy-p-menthane]",factor of increase of transdermal drug uptake,[3],more than 10
CC(C)[C@@H]1CC[C@@H](C)C[C@H]1O [Menthol],factor of increase of transdermal drug uptake,[3],≥ 10
"CC[C@H](C)[C@H](NC(=O)[C@H](CC(=O)O)NC(=O)[C@@H](N)CCCCN)C(=O)N[C@@H](CCCNC(N)=O)C(N)=O [tripeptide-10 citrulline, Tripeptide-10 citrulline] (H-KDI[Cit]-NH2)",improvement of suppleness,[4],≤ 54%
Cc1c(O)cc2c(c1C)O[C@](C)(CCC[C@H](C)CCC[C@H](C)CCCC(C)C)CC2 [γ-tocopherol],relative biological activity,[2],0.1
same,concentration in vivo relative to α-tocopherol,[5],roughly 10%
"CCCCCc1cc(O)c2c(c1)OC(C)(C)C1CCC(C)=CC21 (stereo not shown) [THC, Δ-9-tetrahydrocannabinol]",power in mediating pain relative to morphine,[6],ten times more powerful than morphine
HGH: hormone comprising a peptide chain that is synthesized in the pituitary gland,biological half-life,[7],10-20 minutes
Cc1cc(O)cc2c1O[C@](C)(CCC[C@H](C)CCC[C@H](C)CCCC(C)C)CC2 [δ-tocopherol],relative biological activity,[2],0.03
